Results: PMC11470957, “Principles of paralog-specific targeted protein degradation engaging the C-degron E3 KLHDC2” (Nature Communications, 2024)
Values joined by “and” are separate entries in the source; they are usually repeats but may differ in a detail not shown here. Equal values may be shown once. Read-outs that look alike come from different tables or passages of the source.

Biological target: BRD3 (Homo sapiens, UniProt Q15059)
Test: Western blot of BRD3 levels after cellular dosing
Details: for DC50: read-out: BRD3 DC50
[1] = U2OS, read-out: BRD3 level, Western blot quantification (DMSO = 100), Fig S6d, U2OS KO/rescue Dose Response
[2] = read-out: BRD3 level, Western blot quantification (DMSO = 100), Fig S6e, PC3 KO/rescue Dose Response

Sequence of BRD3 (Q15059 whole entry): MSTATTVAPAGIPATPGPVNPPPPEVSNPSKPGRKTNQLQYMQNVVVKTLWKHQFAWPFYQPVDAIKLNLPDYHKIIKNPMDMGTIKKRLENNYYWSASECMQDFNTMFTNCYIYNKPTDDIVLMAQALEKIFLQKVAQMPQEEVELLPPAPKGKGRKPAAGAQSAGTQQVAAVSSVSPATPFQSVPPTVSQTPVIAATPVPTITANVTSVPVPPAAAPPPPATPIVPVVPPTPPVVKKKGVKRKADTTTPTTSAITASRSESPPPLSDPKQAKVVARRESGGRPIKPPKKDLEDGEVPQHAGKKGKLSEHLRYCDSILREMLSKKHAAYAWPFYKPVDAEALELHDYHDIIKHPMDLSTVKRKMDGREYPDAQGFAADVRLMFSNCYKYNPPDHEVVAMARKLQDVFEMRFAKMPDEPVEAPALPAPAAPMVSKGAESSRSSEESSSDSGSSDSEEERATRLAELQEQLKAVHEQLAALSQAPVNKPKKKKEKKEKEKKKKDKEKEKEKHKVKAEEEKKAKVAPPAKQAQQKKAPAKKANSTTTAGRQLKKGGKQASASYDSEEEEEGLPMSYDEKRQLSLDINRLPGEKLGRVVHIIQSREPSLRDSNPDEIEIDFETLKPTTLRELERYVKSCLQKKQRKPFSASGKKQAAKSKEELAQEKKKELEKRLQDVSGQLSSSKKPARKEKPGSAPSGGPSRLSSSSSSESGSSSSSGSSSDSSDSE

For `COC(=O)CNC(=O)Cc1csc(-c2ccc3cccc(OCCN4CCN(C(=O)C[C@@H]5N=C(c6ccc(Cl)cc6)c6c(sc(C)c6C)-n6c(C)nnc65)CC4)c3c2)n1` [SJ46420], the remaining activity at 5 µM (SK-BR-3, 8 h, read-out: BRD3 level, Western blot quantification (DMSO = 100), Fig S6g, SKBR3 Time course, 5 uM, 8hr) was 10.6%, the remaining activity at 5 µM (SK-BR-3, read-out: BRD3 level, Western blot quantification (DMSO = 100), Fig S6i, SKBR3, 5uM) was 27.2% and the “potency relative to K2-B4-3e (more potent)” value (SKBR3 4 h, U2OS 8 h) was ~ 3 fold and 2-3 fold. For the same compound, the “selectivity of BRD3 over BRD4 degradation” value (“selectivity of BRD3” for short) (SKBR3, 8 hr) was ~ 5 fold, the “selectivity of BRD3” value (SKBR3, 24 hr) was ~ 1.5 fold and the “reduction of the levels of BRD3” value (SKBR3, within two hours) was ~ 70%. The “BRD3 Dmax” value (U2OS KO/Rescue, 24 h dose) was ~ 100%, the “selectivity for BRD3 over BRD2 and BRD4 (DC50)” value (U2OS KO/rescue) was ~ 2.5 fold and the “time of maximal degradation” value (U2OS cells) was 8 h. The remaining activity at 5 µM (U2OS, 2 h, read-out: BRD3 level relative to DMSO (100%), U2OS, 5µM, 2hr, Fig S6h) was 93 ± 9.8%, the remaining activity at 5 µM (U2OS, 2 h, read-out: BRD3 level, Western blot quantification (DMSO = 100), Fig S6h, U2OS Time course, 5uM, 2hr) was 91.4% and the remaining activity at 5 µM (U2OS, 4 h, read-out: BRD3 level relative to DMSO (100%), U2OS, 5µM, 4hr, Fig S6h) was 68 ± 9.8%. The remaining activity at 5 µM (U2OS, 4 h, read-out: BRD3 level, Western blot quantification (DMSO = 100), Fig S6h, U2OS Time course, 5uM, 4hr) was 71.3%, the remaining activity at 5 µM (U2OS, 8 h, read-out: BRD3 level relative to DMSO (100%), U2OS, 5µM, 8hr, Fig S6i) was 41 ± 5.4% and the remaining activity at 5 µM (U2OS, 8 h, read-out: BRD3 level relative to DMSO (100%), U2OS, 5µM, 8hr, Fig S6h) was 28 ± 9.8%. It also gave a remaining activity at 5 µM (U2OS, 8 h, read-out: BRD3 level, Western blot quantification (DMSO = 100), Fig S6h, U2OS Time course, 5uM, 8hr) of 31.8%, a remaining activity at 5 µM (U2OS, 24 h, read-out: BRD3 level relative to DMSO (100%), U2OS DC2KO (KLHDC2 knockout), 5µM, 24 h, Fig 6b) of 100 ± 6.8% and a remaining activity at 0.16 µM (U2OS, 24 h, read-out: BRD3 level relative to DMSO (100%), U2OS KO/Rescue, 0.16µM, 24 h, Fig S6d) of 85 ± 13%. The remaining activity at 0.31 µM (U2OS, 24 h, read-out: BRD3 level relative to DMSO (100%), U2OS KO/Rescue, 0.31µM, 24 h, Fig S6d) was 65 ± 14%, the remaining activity at 0.63 µM (U2OS, 24 h, read-out: BRD3 level relative to DMSO (100%), U2OS KO/Rescue, 0.63µM, 24 h, Fig S6d) was 39 ± 8.5% and the remaining activity at 1 µM (U2OS, 24 h, read-out: BRD3 level relative to DMSO (100%), U2OS KO/Rescue, 1µM + co-dosing 1µM MLN4924, 24 h, Fig 6d) was 120 ± 1.5%. For the same compound, the remaining activity at 1 µM (U2OS, 24 h, read-out: BRD3 level relative to DMSO (100%), U2OS KO/Rescue, 1µM, 24 h, Fig 6c) was 45 ± 3.6%, the remaining activity at 1 µM (U2OS, 24 h, read-out: BRD3 level relative to DMSO (100%), U2OS KO/Rescue, 1µM, 24 h, Fig 6d) was 25 ± 8.2% and the remaining activity at 1.3 µM (U2OS, 24 h, read-out: BRD3 level relative to DMSO (100%), U2OS KO/Rescue, 1.3µM, 24 h, Fig S6d) was 12 ± 1.8%. The remaining activity at 2.5 µM (U2OS, 24 h, read-out: BRD3 level relative to DMSO (100%), U2OS KO/Rescue, 2.5µM, 24 h, Fig S6d) was 0.77 ± 0.16%, the remaining activity at 5 µM (U2OS, 24 h, read-out: BRD3 level relative to DMSO (100%), U2OS KO/Rescue, 5µM, 24 h, Fig S6d) was 0.34 ± 0.11% and the remaining activity at 5 µM (U2OS, 24 h, read-out: BRD3 level relative to DMSO (100%), U2OS, 5µM, 24 h, Fig 6b) was 30.9 ± 4.1%. For the same compound, the remaining activity at 5 µM (U2OS, 24 h, read-out: BRD3 level relative to DMSO (100%), U2OS, 5µM, 24hr, Fig S6h) was 41 ± 9.8%, the remaining activity at 5 µM (U2OS, 24 h, read-out: BRD3 level, Western blot quantification (DMSO = 100), Fig S6h, U2OS Time course, 5uM, 24hr) was 43.5% and the “selectivity of BRD3” value (U2OS, 24 hr) was ~ 1.4 fold. The remaining activity at 1.59176 µM (U2OS, read-out: BRD3 (DMSO = 100), U2OS KO/Rescue cells, Log SJ46420 (uM) 1.59176, Rep1, Rep2) was 95%, the remaining activity at 2.49485 µM (U2OS, read-out: BRD3 (DMSO = 100), U2OS KO/Rescue cells, Log SJ46420 (uM) 2.49485, Rep1, Rep2) was 47.6% and the remaining activity at 2.79588 µM (U2OS, read-out: BRD3 (DMSO = 100), U2OS KO/Rescue cells, Log SJ46420 (uM) 2.79588, Rep1, Rep2) was 11.4%. For the same compound, the remaining activity at 3.09691 µM (U2OS, read-out: BRD3 (DMSO = 100), U2OS KO/Rescue cells, Log SJ46420 (uM) 3.09691, Rep1, Rep2) was 0.66%, the remaining activity at 3.39794 µM (U2OS, read-out: BRD3 (DMSO = 100), U2OS KO/Rescue cells, Log SJ46420 (uM) 3.39794, Rep1, Rep2) was 0.34% and the remaining activity at 3.69897 µM (U2OS, read-out: BRD3 (DMSO = 100), U2OS KO/Rescue cells, Log SJ46420 (uM) 3.69897, Rep1, Rep2) was 0.161%. It also gave a Dmax (U2OS, read-out: BRD3 Dmax, U2OS KO/Rescue, 24 h dose) of 99.9%, a remaining activity at 5 µM (U2OS, read-out: BRD3 level, Western blot quantification (DMSO = 100), Fig 6b, U2OS, 5 uM) of 33.9% and a remaining activity at 5 µM (U2OS, read-out: BRD3 level, Western blot quantification (DMSO = 100), Fig S6i, U2OS, 5uM) of 52.9%. It also gave a remaining activity at 0.156 µM (U2OS, read-out: BRD3 level, Western blot quantification (DMSO = 100), Fig S6d, U2OS KO/rescue Dose Response, 0.156 uM) of 108%, a remaining activity at 0.313 µM (U2OS, read-out: BRD3 level, Western blot quantification (DMSO = 100), Fig S6d, U2OS KO/rescue Dose Response, 0.313 uM) of 70.7% and a remaining activity at 0.625 µM [1] of 29.3%. For the same compound, the remaining activity at 1.25 µM [1] was 11.3%, the remaining activity at 2.5 µM (U2OS, read-out: BRD3 level, Western blot quantification (DMSO = 100), Fig S6d, U2OS KO/rescue Dose Response, 2.5 uM) was 5.44% and the stability in cells (from time-course of BRD3 levels between 8 h and 24 h) was “relatively unstable”. For the same compound, the DC50 (22Rv1, 24 h dose) was 458 nM, the DC50 (PC3, 24 h dose) was 487 nM and the Dmax (read-out: BRD3 Dmax, PC3, 24 h dose) was 99.9%. It also gave a remaining activity at 5 µM (read-out: BRD3 level, Western blot quantification (DMSO = 100), Fig 6b, KO/Rescue, 5 uM) of 105%, a remaining activity at 1 µM (read-out: BRD3 level, Western blot quantification (DMSO = 100), Fig 6c, 1 uM) of 43.9% and a remaining activity at 1 µM (read-out: BRD3 level, Western blot quantification (DMSO = 100), Fig 6d, 1 uM) of 19%. The remaining activity at 1 µM (read-out: BRD3 level, Western blot quantification (DMSO = 100), Fig 6d, 1uM together with 1uM MLN4924) was 120%, the remaining activity at 0.625 µM [2] was 47.6% and the remaining activity at 1.25 µM [2] was 11.4%. For the same compound, the remaining activity at 2.5 µM (read-out: BRD3 level, Western blot quantification (DMSO = 100), Fig S6e, PC3 KO/rescue Dose Response, 2.5 uM) was 0.66%, the remaining activity at 5 µM (read-out: BRD3 level, Western blot quantification (DMSO = 100), Fig S6e, PC3 KO/rescue Dose Response, 5 uM) was 0.34% and the remaining activity at 10 µM (read-out: BRD3 level, Western blot quantification (DMSO = 100), Fig S6e, PC3 KO/rescue Dose Response, 10uM) was 0.161%. The “BRD degradation activity in U2OS cells” value (wild-type U2OS, 24 h dose, Fig 6b) was “efficiently and selectively targeted BRD3 for degradation”.
